Test results: US20130045952A1, “ABA Receptor Agonists for Increased Plant Stress Resistance” (Van Andel Research Institute, priority 2011, published 2013)

Columns and labels:
Assay type in all cases: biochemical
HAB1 = target: T1, HAB1 (Arabidopsis thaliana, UniProt O49686+Q9CAJ0); assay: PP2C phosphatase activity assay, HAB1; conditions: 200 nM PP2C; SnRK2.6 phosphopeptide substrate; None = 100
T1 construct: HAB1 (residues 172-511) were prepared as recombinant proteins in E. coli; H6GST or H6Sumo; made in house; host or cells: E. coli
T1 sequence (Q9CAJ0 172-511 limits assumed): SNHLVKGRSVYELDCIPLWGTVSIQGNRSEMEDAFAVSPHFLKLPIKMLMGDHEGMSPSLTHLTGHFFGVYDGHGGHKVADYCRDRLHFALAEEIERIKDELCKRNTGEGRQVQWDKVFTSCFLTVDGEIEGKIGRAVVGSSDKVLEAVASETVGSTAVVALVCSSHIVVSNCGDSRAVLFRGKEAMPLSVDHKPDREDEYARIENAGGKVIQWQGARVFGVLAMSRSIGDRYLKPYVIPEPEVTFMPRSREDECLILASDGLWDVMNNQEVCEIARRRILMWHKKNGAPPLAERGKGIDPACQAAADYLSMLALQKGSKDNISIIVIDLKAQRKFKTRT
T1 sequence (O49686 1-191): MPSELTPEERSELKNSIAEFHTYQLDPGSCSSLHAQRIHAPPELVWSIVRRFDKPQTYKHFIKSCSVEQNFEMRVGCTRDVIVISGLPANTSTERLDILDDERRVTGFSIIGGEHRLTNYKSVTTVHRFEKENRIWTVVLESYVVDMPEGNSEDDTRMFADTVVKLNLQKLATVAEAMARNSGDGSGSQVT
Method: (§1) Mutant proteins were expressed as H6GST-fusion proteins and purified by glutathione sepharose chromatography. Protein-protein interactions were determined by luminescence proximity AlphaScreen assay. Biotinylated PP2C proteins for the luminescence proximity assay were generated by in vivo biotinylation of avitag-PP2C fusion proteins. PP2C phosphatase activity was measured by phosphate release from a SnRK2.6 phosphoprotein.
(§2) PP2Cs and PYR/PYL proteins were pre-incubated at the indicated concentrations in 50 mM imidazole, pH 7.2, 5 mM MgCl2, 0.1% β-mercaptoethanol and 0.5 mg/ml BSA for 30 min at room temperature. Reactions were started by addition of 100 μM of a phosphopeptide corresponding to amino acids 170-180 of SnRK2.6 (HSQPK^pSTVGTP). This peptide is phosphorylated at a single residue corresponding to Ser175 in SnRK2.6, whose phosphorylation is required for SnRK2.6 kinase activity^32. Phosphate release from ^pS175 from the phosphopeptide was determined by colorimetric assay (BioVision).

ABI1 = target: T2, ABI1 (Arabidopsis thaliana, UniProt O49686+P49597); assay: PP2C phosphatase activity assay, ABI1; conditions: 200 nM PP2C; SnRK2.6 phosphopeptide substrate; None = 100
T2 construct: ABI1 (residues 117-434) and ABI2 (residues 101-423) were expressed as H6Sumo fusion proteins; H6Sumo (N); made in house; host or cells: E. coli BL21
T2 sequence (P49597 117-434 limits assumed): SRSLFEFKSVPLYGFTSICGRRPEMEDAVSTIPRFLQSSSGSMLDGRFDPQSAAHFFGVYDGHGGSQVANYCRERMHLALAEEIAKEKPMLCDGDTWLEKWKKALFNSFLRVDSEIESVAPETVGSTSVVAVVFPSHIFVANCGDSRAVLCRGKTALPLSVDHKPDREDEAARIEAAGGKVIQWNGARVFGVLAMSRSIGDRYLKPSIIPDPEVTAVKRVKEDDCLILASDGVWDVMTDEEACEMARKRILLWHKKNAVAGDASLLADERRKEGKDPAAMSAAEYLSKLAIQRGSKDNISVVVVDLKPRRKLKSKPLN
T2 sequence (O49686 1-191): T1 sequence (O49686 1-191)
Method: as §1, §2

His6-PYL1 / biotin-PP2C = target: T3, His6-PYL1 / biotin-PP2C (Arabidopsis thaliana, UniProt Q8VZS8); assay: AlphaScreen luminescence proximity assay, PYL1-PP2C interaction; conditions: for Stimulation of the interaction between PYL1 and PP2C (binding signal): 100 nM His6-PYL1, 100 nM biotin-PP2C, 100 μM agonist, normalized against a pyrabactin control
T3 construct: PYL1 (residues 36-211), PYL2 (residues 14-188), and HAB1 (residues 172-511) were prepared as recombinant proteins in E. coli; made in house; host or cells: E. coli
T3 sequence (Q8VZS8 36-211): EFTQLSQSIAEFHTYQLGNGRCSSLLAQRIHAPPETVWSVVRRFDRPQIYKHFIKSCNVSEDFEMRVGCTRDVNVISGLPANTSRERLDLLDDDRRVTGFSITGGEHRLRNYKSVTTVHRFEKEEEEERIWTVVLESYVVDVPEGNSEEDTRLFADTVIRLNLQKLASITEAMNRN
Method: as §1
Interactions between PYR/PYL and PP2Cs were assessed by luminescence-proximity AlphaScreen technology (Perkin Elmer). Briefly, biotinylated PP2Cs were attached to streptavidin-coated donor beads, and H6-tagged PYR/PYL receptors were attached to nickel-chelated acceptor beads. The donor and acceptor beads were brought into proximity by the interactions between PYR/PYLs and PP2Cs, which were measured with and without ligands. When excited by a laser beam of 680 nm, the donor beam emits singlet oxygen that activates thioxene derivatives in the acceptor beads, which releases photons of 520-620 nm as the binding signal. The experiments were conducted with 100 nM of PP2Cs and PYR/PYL proteins in the presence of 5 ug/ml donor and acceptor beads in a buffer of 50 mM MOPS, pH7.4, 50 mM NaF, […], and 0.1 mg/ml bovine serum albumin. The results were based on an average of three experiments with standard errors typically less than 10% of the measurements.
Values were determined in different experiments and normalized against a pyrabactin control. Blank spaces mean no experimental data is available. Key (photon counts (binding signal units) in Alphascreen luminescence proximity assay): “+++ is >75,000; ++ is 25,000−75,000; + is <25,000.

ABI2 = target: T4, ABI2 (Arabidopsis thaliana, UniProt O04719+O49686); assay: PP2C phosphatase activity assay, ABI2; conditions: 200 nM PP2C; SnRK2.6 phosphopeptide substrate; None = 100
T4 construct: ABI1 (residues 117-434) and ABI2 (residues 101-423) were expressed as H6Sumo fusion proteins; H6Sumo (N); made in house; host or cells: E. coli BL21
T4 sequence (O04719 101-423 limits assumed): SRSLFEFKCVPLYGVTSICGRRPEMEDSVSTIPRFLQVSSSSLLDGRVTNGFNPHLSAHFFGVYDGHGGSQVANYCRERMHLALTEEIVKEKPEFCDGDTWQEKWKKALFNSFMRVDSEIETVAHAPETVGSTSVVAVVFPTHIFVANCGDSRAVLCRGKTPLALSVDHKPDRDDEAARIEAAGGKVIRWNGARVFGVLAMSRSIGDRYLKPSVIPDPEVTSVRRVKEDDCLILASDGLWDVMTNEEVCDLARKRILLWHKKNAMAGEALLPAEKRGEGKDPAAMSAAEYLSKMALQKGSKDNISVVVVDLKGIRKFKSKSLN
T4 sequence (O49686 1-191): T1 sequence (O49686 1-191)
Method: as §1, §2

SMILES	% Phosphatase Activity HAB1 (HAB1) [%]	% Phosphatase Activity ABI1 (ABI1) [%]	Stimulation of the interaction between PYL1 and PP2C (binding signal) (His6-PYL1 / biotin-PP2C)	% Phosphatase Activity ABI2 (ABI2) [%]	Promotion of PYL1 interaction with the three PP2Cs (His6-PYL1 / biotin-PP2C; purified proteins in vitro, HAB1, ABI1, ABI2)	Agonist activity in wildtype PYL1 (His6-PYL1 / biotin-PP2C; wildtype PYL1)
O=C1Nc2ccc(S(=O)(=O)NCc3ccccn3)c3cccc1c23 [Compound 1]	16.6 ± 2.0	3.3 ± 1.0	+ (+ is <25,000)	3.2 ± 0.7	–	–
CCOC(=O)CNS(=O)(=O)c1ccc2c3c(cccc13)C(=O)N2CC [Compound 2]	6.1 ± 1.9	4.3 ± 0.8	+ (+ is <25,000)	3.8 ± 0.6	–	–
CCN1C(=O)c2cccc3c(S(=O)(=O)NC[C@@H]4CCCO4)ccc1c23 [Compound 11]	8.8 ± 0.3	4.7 ± 1.0	+ (+ is <25,000)	4.5 ± 0.5	–	–
O=S(=O)(NCc1ccccn1)c1ccc(Br)c2ccccc12 [Pyrabactin, pyrabactin]	12.6 ± 0.3	2.8 ± 0.2	–	1.5 ± 0.8	promoted interaction	very weak
